Results: patent US11932654B2, “Nimbolide analogs as anti-cancer agents and preparation thereof” (priority 2018, dated 2024)

Experiments:
[1] = test system: Panc-1 pancreatic cancer cell line; assay: In vitro anticancer activity, SRB assay, Panc-1; type: cell-based; details: Homo sapiens, 48 h, NA = Not Active
Method: (§1) Cell culture: Human lung adenocarcinoma cell line (A549 cell line), pancreatic cancer cell line (Panc-1, Pan-02), prostate cancer cell line (DU145, PC3), Brest cancer cell line (MCF-7) was grown in DIEM (Dulbecco's modifications of eagle's medium with L-glutamine & 4.5 g/L glucose) supplemented with fetal bovine serum in a humidified atmosphere of a 5% CO2 at 37° C.
(§2) In vitro anticancer activity: Cells were harvested from exponential phase cultures by trypsinization, counted and plated in 96-well plate. Optimal seeding densities for different cell lines in each plate were 5000 cells per well. After 24 h cells were treated with \ the newly synthesized compound at a dose range of 0.1-100 μm final concentration. Thereafter, cells were allowed to grow for 48 h before determination of cell survival by the SRB assay. Then the cells were fixed with 10% cold trichloroacetic acid for 1 h at 4° C. After two washes with deionized water, fixed cells were stained with 50 μL of SRB solution (1% in acetic acid) for 30 min and subsequently washed twice with 1% acetic acid to remove unbound stain. The plates were left to dry at room temperature and bound stain was solubilized with 100 μL of 10 mM buffered Tris base for reading the […] at 540 nm.

p53 = assay: Western blotting analysis on Panc-1 cell line, p53; type: cell-based; details: panc-1 cells, various concentrations, 24 h, Western blot
Method: (§3) Western blotting analysis of IM-1372-Kn-13 on Panc-1 cell line: The cells were lysed in RIPA buffer (50 mM-tris (PH-7.4), 150 Min-Nacl, 1%-NP-40, 0.1%-SDS, 0.5%-Sodium-deoxycholate, 1 mM EDTA, 5 mM NaF, 5 mM Na—O-vandate, 1 mM PMSF, Protease inhibitor cocktail. The lysates were cleared by centrifugation at […] and concentration of protein was estimated by bradford assay. For Western blot analysis, equivalent amount of protein was resolved in SDS-PAGE and then transferred to polyvinylidene difluoride ([…]) membrane. Ti avoid non specific binding of antibodies, the membranes were blocked using 3% BSA in TBS with 0.5% Tween (TBST) for 1 h at room temperature. The membranes were then incubated in primary antibody overnight at 4° C. After removing excess primary antibody bound to membranes, blots were incubated with secondary anti body. Then the signal emitted was captured using chemiluminescence substrate.

[2] = test system: Pan-02 pancreatic cancer cell line; assay: In vitro anticancer activity, SRB assay, Pan-02; type: cell-based; details: Pan02, 48 h
Method: as §1, §2

[3] = test system: MCF-7 breast cancer cell line; assay: In vitro anticancer activity, SRB assay, MCF-7; type: cell-based; details: Homo sapiens, MCF7, 48 h, NA = Not Active
Method: as §1, §2

caspase-3 = assay: Caspase assay activity, caspase-3, Panc-1 cells; type: cell-based; details: fluorimetric assay, increasing concentrations
Method: (§4) Caspase assay activity: Caspase-3, caspase-8 and caspase-9 protease activities were determined using a commercial fluorescence assay kit according to the manufacturer's instructions, Briefly, pancreatic cancer cells were treated with different concentrations of IM-1372-Kn-13 for 24 h were re-suspended in 50 μL of chilled cell lysis buffer; cells were then incubated on ice for 10 min and centrifuged for 1 min in a micro-centrifuge (10,000 g). Then supernatants were transferred (cytosolic extract) to a fresh tube and protein concentration was assayed. Next, diluted 100 μg protein was added to 50 μL cell lysis buffer for each assay. Subsequently, 50 μL of 2× reaction buffer and 5 μL of the 4 mM Ac-DEVD AMC (caspase-3)/Ac-VETD-AMC (caspase-8)/[…] were added and incubated at 37° C. for 2 h (samples read at […] in a microtiter plate reader).

p27 = assay: Western blotting analysis on Panc-1 cell line, p27; type: cell-based; details: panc-1 cells, various concentrations, 24 h, Western blot
Method: as §3

p21 = assay: Western blotting analysis on Panc-1 cell line, p21; type: cell-based; details: panc-1 cells, various concentrations, 24 h, Western blot
Method: as §3

[4] = test system: PC3 prostate cancer cell line; assay: In vitro anticancer activity, SRB assay, PC3; type: cell-based; details: 48 h, NA = Not Active
Method: as §1, §2

caspase-8 = assay: Caspase assay activity, caspase-8, Panc-1 cells; type: cell-based; details: fluorimetric assay, increasing concentrations
Method: as §4

[5] = Biochemical analysis in acute toxicity studies; type: in vivo, mice
Method: Biochemical analysis: In acute toxicity experiment, blood samples were collected from all the animals 1 week after the last dose and mice were sacrificed by cervical decapitation. The obtained serum was analyzed in clinical chemistry for the assessment of liver function tests (LFT), activity of serum alkaline phosphatase (ALP), alanine aminotransferase (ALT), aspartate aminotransferase (AST), kidney function tests (RFT) (serum urea and creatinine). The same tests were performed for serum samples collected from three groups of tumor xenograft mice used for determining in vivo activity of test compound against pancreatic cancer. The measurement of these biochemical parameters was done in Clinical Biochemical analyzer (Tulip coralab 3000™).

[6] = single IP dose 5 mg/kg body weight
[7] = single IP dose 10 mg/kg body weight
[8] = single IP dose 25 mg/kg body weight
[9] = single IP dose 50 mg/kg body weight

Which IC50 [1] does the source give for `COC(=O)C[C@H]1[C@]2(C)C3=C(C)[C@H](C4=CC5OC4C(C(=O)OC)=C5C(=O)OC)C[C@@H]3O[C@@H]2[C@@H]2OC(=O)[C@]3(C)C=CC(=O)[C@@]1(C)C23` (stereo partly drawn) [A4] here?
The IC50 was 9.08 µM.

And the “expression of p53 protein” value (p53)?
The value was “reduced”.

What about the IC50 [2] of the same compound?
Its IC50 is 0.52 µM.

What about the IC50 [3] of the same compound?
The IC50 was 12.5 µM.

What about the “activity of caspase-3” value (caspase-3) of the same compound?
Its value is “increased significantly in a dose-dependent manner”.

And the “expression of p27 protein” value (p27)?
The value was “reduced”.

And the “expression of p21 protein” value (p21)?
The value was “reduced”.

What about the IC50 [4] of the same compound?
Its IC50 is 1.4 µM.

What about the “activity of caspase-8” value (caspase-8) of the same compound?
The value was “increased significantly in a dose-dependent manner”.

What about the ALT [5, 6] of the same compound?
The ALT was 48 U/L.

And the AST [5, 6]?
The AST was 63 U/L.

And the BUN [5, 6]?
The BUN was 18 mg/dL.

And the Cholesterol [5, 6]?
Its Cholesterol is 175 mg/dL.

And the Creatinine [5, 6]?
The Creatinine was 0.4 mg/dL.

What about the Glucose [5, 6] of the same compound?
The Glucose was 101 mg/dL.

What about the ALT [5, 7] of the same compound?
The ALT was 66 U/L.

And the AST [5, 7]?
The AST was 66 U/L.

What about the BUN [5, 7] of the same compound?
Its BUN is 21 mg/dL.

And the Cholesterol [5, 7]?
The Cholesterol was 175 mg/dL.

And the Creatinine [5, 7]?
The Creatinine was 0.4 mg/dL.

And the Glucose [5, 7]?
Its Glucose is 100 mg/dL.

What about the ALT [5, 8] of the same compound?
Its ALT is 67 U/L.

And the AST [5, 8]?
The AST was 74.5 U/L.

And the BUN [5, 8]?
The BUN was 24.5 mg/dL.

And the Cholesterol [5, 8]?
The Cholesterol was 163.5 mg/dL.

And the Creatinine [5, 8]?
The Creatinine was 0.35 mg/dL.

What about the Glucose [5, 8] of the same compound?
Its Glucose is 96 mg/dL.

What about the ALT [5, 9] of the same compound?
The ALT was 95 U/L.

And the AST [5, 9]?
The AST was 128 U/L.

What about the BUN [5, 9] of the same compound?
The BUN was 29 mg/dL.

What about the Cholesterol [5, 9] of the same compound?
Its Cholesterol is 178 mg/dL.

And the Creatinine [5, 9]?
Its Creatinine is 0.9 mg/dL.

And the Glucose [5, 9]?
The Glucose was 102 mg/dL.
